Experimental data: US20060135569A1, “Use of benzisoselenazolone compounds against ischemic myocardial damage” (priority 2002, published 2006)
Marks after values point to notes of the source that are not given here.

How the values were obtained:
[1] = system: acute myocardial ischemia in anesthetized dogs; experiment: Acute myocardial ischemia and infarction in anesthetized dogs; assay type: in vivo, dog
Procedure: Dogs were divided into three groups: 1, vehicle control group, PEG 1 ml/kg, n=5; 2, dilthiazem group, 5 mg/kg, n=5; 3, IMM-004 group, 30 mg/kg, n=5. The tested drugs were prepared in distilled water at volume of 1 ml/kg. The tested items were administrated via duodenum by animals.

[2] = system: normal rats; experiment: Cardiac function and hemodynamics in normal rats; assay type: in vivo, rat; conditions: 30 mg/kg orally; normal anesthetized rats
Procedure: Method: Male SD rats, weighing 300-350 g were fasted for 12 hrs and anesthetized by i.p. treatment with 20% Urethane (0.5 ml/100 g, 1 g/kg). Polyethylene tubes (PE-50) were inserted into the left femoral artery, left femoral vein, right femoral vein and the left ventricle. The left femoral artery was cannulated for blood collection, and the left femoral vein was cannulated for liquid compensation, the right femoral artery was cannulated for blood pressure detection, the left ventricle was cannulated for ventricular pressure detection, the left femoral artery and ventricle were cannulated and the catheter was linked with pressure transducer by triplet. Signals were acquired by oscillograph and multi-channel biodynamic recorder linked with the pressure transducer. Rats in drug-treating group were orally administered with IMM-004 at 30 mg/kg, while rats in vehicle control group was orally treated with equal volume of vehicle (PEG). Left ventricular systolic pressure (LVSP), left ventricular end-diastolic pressure (LVEDP), and maximum rate of left ventricular pressure (±dp/dtmax), artery systolic pressure (SP), artery diastolic pressure (DP), mean artery pressure (MAP) and heart rate (HR) were recorded 40 min after the administration. Signals were continuously recorded in every 10 min.

[3] = system: rats subjected to myocardial ischemia/reperfusion insult; experiment: Cardiac function and hemodynamics in rats subjected to myocardial ischemia/reperfusion; assay type: in vivo, rat; conditions: 30 mg/kg orally
Procedure: Method: Male SD rats weighing 300-350 g were fasted for 12 hrs and anesthetized by i.p. treatment with 20% Urethane (0.5 ml/100 g, 1 g/kg). Polyethylene tubes (PE-50) were inserted into the left femoral artery, left femoral vein, right femoral vein and the left ventricle. The left femoral artery was cannulated for blood collection, and the left femoral vein was cannulated for liquid compensation, the right femoral artery was cannulated for blood pressure detection, the left ventricle was cannulated for ventricular pressure detection, left femoral artery and ventricle were cannulated and the catheter was linked with pressure transducer by triplet. Signals were acquired by oscillograph and multi-channel biodynamic recorder linked with the pressure transducer. Rats in drug-treated group were orally treated with IMM-004 at 30 mg/kg, while rats in vehicle control group was orally treated with an equal volume of vehicle (PEG). Dissect the trachea and artificial respiration was performed via respirator after thoracotomy (2 ml/100 g). A left thoracotomy was performed from the forth to fifth intercostals space by cutting off the forth and fifth rib 2 mm from the left border of sternum, and the pericardium was opened to expose the heart. A 3.0 silk ligature was placed under the left anterior descending coronary artery. The heart was taken back to the chest and allowed to stabilize for 10 min. The ends of the suture were threaded through a polyethylene tube (3×8 mm) to form a snare. Pull the ends of the suture taut and clamp the snare with a hemostat to occlude the coronary artery. Coronary artery occlusion was verified by epicardial cyanosis and subsequent decrease in arterial blood pressure. Reprefusion of the heart was initiated via unclamping the hemostat and loosening the snare for 15 min. Left ventricular systolic pressure (LVSP), left ventricular end-diastolic pressure (LVEDP), and maximum rate of left ventricular pressure (±dp/dtmax), artery systolic pressure (SP), artery diastolic pressure (DP), mean artery pressure (MAP) and heart rate (HR) were continuously recorded every 10 min before and after thoracotomy and during the period of ischemia (15 min) and reperfusion (1 h).

[4] = Acute toxicity study in mice; assay type: in vivo; conditions: male, KM, mouse, in vivo; oral, mice; read-out: LD50 (50% lethal dose)
Procedure: Acute toxicity studies were performed with IMM-004 and IMM-127 (synthesized by ourselves). The compound was provided as powder, which was milled and suspended in 0.5% carboxymethylcellulose sodium (CMC—Na) before use.
Male KM mice weighting 19±2 g were housed for an adaptation before use. Mice were randomly divided into groups, and each group consists of 10 animals. Mice were all fasted for 14 hrs before the administration of the tested compounds. Activity of mice in high dose group was reduced 30 min after the administration. 24 h after the administration, mice in each group were restored to normal. Mice were observed daily for a period of 7 days after the administration.

[5] = N-BT staining, Dilthiazem 5 mg/kg, IMM-004 30 mg/kg, % according to b137

## O=c1c2cc(Cl)ccc2[se]n1-c1ccccn1 [IMM-004, 5-chloro-2-(2-pyridyl)-1,2-benz-isoselenazol-3(2H)-one]
[1]; 30 mg/kg
  infarction size (of heart) decrease compared with the vehicle control: 69.18%
  infarction size (of ventricle) decrease compared with the vehicle control: 67.94%
[1]; 30 mg/kg via duodenum, 180 min after administration
  Σ-ST decreased by: 53.90±20.60%
[1]; 30 mg/kg via duodenum, 180 min after administration, from 325.20±55.95 mV
  severity of myocardial ischemia (Σ-ST): 146.80±60.25 mV
[1]; 30 mg/kg, 120 min and 180 min after administration, vs baseline
  Coronary flow (under heading arterial and venous blood oxygen content): significantly increased
[1]; 30 mg/kg, N-BT staining
  Myocardial infarction size, % of heart: 2.04±0.93%
  Myocardial infarction size, % of ventricular: 5.08±2.00%
[1]; 30 mg/kg, vs vehicle control
  elevation of LDH activity: no effect
  elevation of serum AST: significantly inhibited
  elevation of serum CK: significantly inhibited
[1]; 30 min after treatment, 30 mg/kg
  Coronary flow increase verse the baseline: 15.02±22.16%
[1]; [5]
  Infarction area/ heart area: 2.04 ± 0.93
  Infarction area/ventricle area: 5.08 ± 2.00
[1]; N-BT staining, Dilthiazem 5 mg/kg, IMM-004 30 mg/kg, X ± SD
  Infarction area mm^2: 255.70 ± 58.2*** mm^2
[1]; N-BT staining, IMM-004 30 mg/kg, dilthiazem 5 mg/kg
  Myocardial infarction size, in words: significantly reduced
[1]; after treatment, dilthiazem 5 mg/kg, IMM-004 30 mg/kg
  Coronary flows, in words: significantly increased
[2]
  LVSP, LVEDP, ±dp/dtmax, SP, DP, MAP and heart rate (HR): not significantly influenced
[3]
  +dp/dtmax: about +110 mmHg/s
  Heart rate: not influenced
  MAP: 80 mmHg
  SBP: 100 mmHg
[3]; decreased steadily from 120 mmHg
  LVSP: 100 mmHg
[3]; equal to the baseline
  LVEDP: about −6 mmHg
[3]; reduced from 100 mmHg/s
  −dp/dtmax: 70 mmHg/s
[4]
  LD50 at 7 days: > 5000 mg/kg
